# Measurements from patent EP2241312A1, “Use of compositions comprising urea for treating microbial infections” (ISDIN S.A., priority 2009, dated 2010).
# Read-outs that look alike come from different tables or passages of the source.
# Experiments:
# LL-37 = LL-37 gene expression in subconfluent primary human keratinocytes after urea stimulation (real time PCR); type: cell-based; details: 10mM urea, compared to untreated control cells; for relative gene expression level LL-37: 10000 µM; for fold induction at 10000 µM: Homo sapiens, Keratinocyte, read-out: relative gene expression level LL-37
# Protocol: (§1) Primary human epidermal keratinocytes were prepared from neonatal foreskin as described previously (Grether-Beck et al, 1996, 2000, 2003, 2005, 2008) and maintained in culture under serum free conditions using a defined keratinocyte growth medium Keratinocyte SFM (Invitrogen, Heidelberg, Germany) supplemented with bovine pituitary extract (Invitrogen, Heidelberg, Germany) and recombinant epidermal growth factor (Invitrogen, Heidelberg, Germany). Cells were propagated up to passage 2 or 3 at 37°C and 5 % CO2 (Grether-Beck et al, 1996, 2000, 2003, 2005, 2008). For induction of differentiation NHEKs were seeded in 6well plates and grown up to confluence.
# (§2) For assessment of gene expression total RNA was extracted from frozen biopsies (Ø 4 mm) and gene expression measured by semiquantitative RT-PCR. For isolation of RNA from frozen skin biopsies, 600 µl lysis buffer from PeqGold Total RNA Kit (PeqLab, Erlangen, Germany) were added and the samples were disrupted in a MixerMill MM300 (Retsch, Haan, Germany) three times for 3 min with 30 Hz. 50 ng total RNA were used for cDNA synthesis. PCR reactions were performed in an Opticon 1 (MJ Research, Waltham, MA, USA) using Sybr QPCR Supermix w. Rox (Invitrogen, Karlsruhe, Germany). PCR conditions were as follows: activation of hot start taq polymerase 94° C 15 minutes; denaturation 95° C, 20 seconds; annealing, 55° C, 20 seconds; extension, 72° C 30 seconds. Each sample was subjected to PCR in double using the appropriate primer pairs for 45-50 cycles. For comparison of relative expression in real time PCR control cells and treated cells the 2 (-della delta C(T)) method was used (Livak KJ, and Schmittgen TD. Analysis of relative gene expression data using real time quantitative PCR and the 2 (-delta delta C(T)) method. Methods 2001: 25: 402 - 408). mRNA expression of the genes of interest was shown as fold induction as compared to untreated skin samples of the same volunteer. Table 1: Primer pairs for real time PCR
# (§3) For determination of relative gene expression in real time PCT the 2(-delta delta C(T))-method was used as described in Livak and Schmittgen (2001) "Analysis of relative gene expression data using real time quantitative PCR and the 2 (-delta delta C(T))-method" Methods 25: 401-408. For statistical analysis, the experimental data were analyzed using the Wilcoxon signed-rank test.
# (§4) HNKs were stimulated with 10mM urea for the indicated time points (3h, 6h, 12h, 24h) and processed for RNA analysis (1). Data are the result of a set of three samples for the control and two samples in parallel for the urea stimulated ones. Table 2 indicates the relative gene expression levels after stimulation with urea as compared to untreated contol cells. […] Table 3 indicates the data depicted in Figure 2. [formula] Table 2: Expression of antimicrobial peptides in human keratinocytes after stimulation with urea at different time points after induction.
# HBD-2 = test: cells; type: cell-based, human; details: for fold induction at 1000 µM / fold induction at 10000 µM / fold induction at 20000 µM / fold induction at 50000 µM / fold induction at 100000 µM / fold induction at 5000 µM: Homo sapiens, Keratinocyte; for Expression of HBD-2: keratinocytes
# Protocol: as §1, §2, §3
# as §4, with “Data” for “HNKs were stimulated with 10mM urea for the indicated time points (3h, 6h, 12h, 24h) and processed for RNA analysis (1). Data”
# HBD2 = test: cells; type: cell-based, human; details: for fold induction at 10000 µM: Homo sapiens, Keratinocyte
# Protocol: as §1, §2, §3, §4
# HBD1 = test: cells; type: cell-based, human; details: for fold induction at 10000 µM: Homo sapiens, Keratinocyte; for relative gene expression level HBD1: primary keratinocytes, 10000 µM
# Protocol: as §1, §2, §3, §4
# Humpsor = test: cells; type: cell-based, human; details: for fold induction at 10000 µM: Homo sapiens, Keratinocyte
# Protocol: as §1, §2, §3, §4
# HBD3 = test: cells; type: cell-based, human; details: for fold induction at 10000 µM: Homo sapiens, Keratinocyte; for relative gene expression level HBD3: primary keratinocytes, 10000 µM
# Protocol: as §1, §2, §3, §4
smiles,measurement,setting,value
NC(N)=O [urea],relative gene expression level LL-37,"LL-37; 3h, 180 min",1.9000
same,relative gene expression level LL-37,"LL-37; 24h, 1440 min",1.9000
same,fold induction at 10000 µM,"LL-37; 6 h, 6h",2.8
same,fold induction at 10000 µM,"LL-37; 12 h, 12h",2.3
same,fold induction at 10000 µM,"LL-37; 24 h, 24h",2.1
same,fold induction at 1000 µM,"HBD-2; 24 h, read-out: Expression of HBD-2, 24h, 1mM urea",1.2
same,fold induction at 10000 µM,"HBD-2; 24 h, read-out: Expression of HBD-2, 24h, 10mM urea",1.5
same,fold induction at 20000 µM,"HBD-2; 24 h, read-out: Expression of HBD-2, 24h, 20mM urea",3.9
same,fold induction at 50000 µM,"HBD-2; 24 h, read-out: Expression of HBD-2, 24h, 50mM urea",2.3
same,fold induction at 100000 µM,"HBD-2; 24 h, read-out: Expression of HBD-2, 24h, 100mM urea",1.3
same,fold induction at 1000 µM,"HBD-2; 48 h, read-out: Expression of HBD-2, 48h, 1mM urea",0.9
same,fold induction at 5000 µM,"HBD-2; 48 h, read-out: Expression of HBD-2, 48h, 5mM urea",1.7
same,fold induction at 10000 µM,"HBD-2; 48 h, read-out: Expression of HBD-2, 48h, 10mM urea",3.3
same,fold induction at 20000 µM,"HBD-2; 48 h, read-out: Expression of HBD-2, 48h, 20mM urea",19.1
same,fold induction at 50000 µM,"HBD-2; 48 h, read-out: Expression of HBD-2, 48h, 50mM urea",6.3
same,fold induction at 100000 µM,"HBD-2; 48 h, read-out: Expression of HBD-2, 48h, 100mM urea",2.3
same,fold induction at 1000 µM,"HBD-2; 72 h, read-out: Expression of HBD-2, 72h, 1mM urea",2.2
same,fold induction at 5000 µM,"HBD-2; 72 h, read-out: Expression of HBD-2, 72h, 5mM urea",5.4
same,fold induction at 10000 µM,"HBD-2; 72 h, read-out: Expression of HBD-2, 72h, 10mM urea",6.5
same,fold induction at 20000 µM,"HBD-2; 72 h, read-out: Expression of HBD-2, 72h, 20mM urea",13.3
same,fold induction at 50000 µM,"HBD-2; 72 h, read-out: Expression of HBD-2, 72h, 50mM urea",10.1
same,fold induction at 100000 µM,"HBD-2; 72 h, read-out: Expression of HBD-2, 72h, 100mM urea",2.9
same,fold induction at 1000 µM,"HBD-2; 96 h, read-out: Expression of HBD-2, 96h, 1mM urea",1.9
same,fold induction at 5000 µM,"HBD-2; 96 h, read-out: Expression of HBD-2, 96h, 5mM urea",4.1
same,fold induction at 10000 µM,"HBD-2; 96 h, read-out: Expression of HBD-2, 96h, 10mM urea",6.1
same,fold induction at 20000 µM,"HBD-2; 96 h, read-out: Expression of HBD-2, 96h, 20mM urea",15
same,fold induction at 50000 µM,"HBD-2; 96 h, read-out: Expression of HBD-2, 96h, 50mM urea",12.6
same,fold induction at 100000 µM,"HBD-2; 96 h, read-out: Expression of HBD-2, 96h, 100mM urea",10.2
same,Expression of HBD-2,"HBD-2; 24 h, 1000 µM",1.1000
same,Expression of HBD-2,"HBD-2; 24 h, 10000 µM",1.6000
same,Expression of HBD-2,"HBD-2; 48 h, 1000 µM",0.7000
same,Expression of HBD-2,"HBD-2; 48 h, 5000 µM",1.6000
same,Expression of HBD-2,"HBD-2; 48 h, 50000 µM",6.2000
same,Expression of HBD-2,"HBD-2; 48 h, 100000 µM",2.6000
same,Expression of HBD-2,"HBD-2; 72 h, 1000 µM",2.6000
same,Expression of HBD-2,"HBD-2; 72 h, 10000 µM",7.0000
same,Expression of HBD-2,"HBD-2; 72 h, 20000 µM",13.2000
same,Expression of HBD-2,"HBD-2; 96 h, 1000 µM",1.8000
same,Expression of HBD-2,"HBD-2; 96 h, 5000 µM",4.2000
same,Expression of HBD-2,"HBD-2; 96 h, 100000 µM",10.9000
same,fold induction at 10000 µM,"HBD2; 3 h, read-out: relative gene expression level HBD2, 10mM urea, 3h, compared to untreated control cells",1.8
same,fold induction at 10000 µM,"HBD2; 6 h, read-out: relative gene expression level HBD2, 10mM urea, 6h, compared to untreated control cells",1.1
same,fold induction at 10000 µM,"HBD2; 12 h, read-out: relative gene expression level HBD2, 10mM urea, 12h, compared to untreated control cells",1.5
same,fold induction at 10000 µM,"HBD2; 24 h, read-out: relative gene expression level HBD2, 10mM urea, 24h, compared to untreated control cells",1.6
same,relative gene expression level HBD2,"HBD2; primary keratinocytes, 3 h, 10000 µM",1.7000
same,fold induction at 10000 µM,"HBD1; 3 h, read-out: relative gene expression level HBD1, 10mM urea, 3h, compared to untreated control cells",3.1
same,fold induction at 10000 µM,"HBD1; 6 h, read-out: relative gene expression level HBD1, 10mM urea, 6h, compared to untreated control cells",1.3
same,fold induction at 10000 µM,"HBD1; 12 h, read-out: relative gene expression level HBD1, 10mM urea, 12h, compared to untreated control cells",1.6
same,fold induction at 10000 µM,"HBD1; 24 h, read-out: relative gene expression level HBD1, 10mM urea, 24h, compared to untreated control cells",1.6
same,relative gene expression level HBD1,HBD1; 3 h,3.000
same,relative gene expression level HBD1,HBD1; 6 h,1.5000
same,fold induction at 10000 µM,"Humpsor; 3 h, read-out: relative gene expression level Humpsor, 10mM urea, 3h, compared to untreated control cells",1.9
same,fold induction at 10000 µM,"Humpsor; 6 h, read-out: relative gene expression level Humpsor, 10mM urea, 6h, compared to untreated control cells",2.6
same,fold induction at 10000 µM,"Humpsor; 24 h, read-out: relative gene expression level Humpsor, 10mM urea, 24h, compared to untreated control cells",1.5
same,relative gene expression level Humpsor,"Humpsor; primary keratinocytes, 6 h, 10000 µM",3.1000
same,fold induction at 10000 µM,"HBD3; 3 h, read-out: relative gene expression level HBD3, 10mM urea, 3h, compared to untreated control cells",4
same,fold induction at 10000 µM,"HBD3; 6 h, read-out: relative gene expression level HBD3, 10mM urea, 6h, compared to untreated control cells",2
same,fold induction at 10000 µM,"HBD3; 12 h, read-out: relative gene expression level HBD3, 10mM urea, 12h, compared to untreated control cells",1.6
same,fold induction at 10000 µM,"HBD3; 24 h, read-out: relative gene expression level HBD3, 10mM urea, 24h, compared to untreated control cells",3.2
same,relative gene expression level HBD3,HBD3; 3 h,3.7000
same,relative gene expression level HBD3,HBD3; 6 h,1.8000
same,relative gene expression level HBD3,HBD3; 12 h,1.7000
same,relative gene expression level HBD3,HBD3; 24 h,3.3000
